In US20190151340A1, “POLYMERIC NAN[…]” (priority 2017, published 2019) one finds survival, effectiveness in patients and antitumor activity data, which are given here for one compound.

Data set [1] in a line: Comparative toxicity in wild-type mice (body weight, lethality). The class given is in vivo, CD1 wild type mice. The procedure:
The effect of nanoparticles in mitigating the toxicity of bortezomib was examined in wild-type mice. Different doses of bortezomib alone (1.5, 3, 6, 9 and 12 mg/kg) or bortezomib-nanoparticles (NP) (0.9, 1.8, 3.6, 5.4 and 7.2 mg/kg) were injected into CD1 wild type. Three mice were used in each group of bortezomib alone and bortezomib-NP groups, body weights, food and water uptake were measured every day for 22 days.

In data set [2] the test system is relapsed and refractory multiple myeloma. Particulars: Richardson et al. 2003, Phase 2; cited from earlier work.
Data set [3] concerns human tumor xenograft models. Particulars: Albanell and Adams 2002; cited from earlier work.

SMILES strings stand for the structures.

As to `CC(C)C[C@H](NC(=O)[C@H](Cc1ccccc1)NC(=O)c1cnccn1)B(O)O` [bortezomib, N-2-pyrazinecarbonyl-L-phenylalanine-L-leucineboronic acid], the survival result in data set [1] (6 mg/kg dose) is listed as “two”; in data set [1] (9 mg/kg dose), “died after Day 1”. Besides, the effectiveness in patients entry in data set [2] is “effectiveness in treating relapsed and refractory multiple myeloma”. In data set [3], the antitumor activity entry is listed as “significant antitumor activity”.
